The text below walks through data of PubChem BioAssay (NCI).

Each structure is given as a SMILES string. Where “and” joins values, the source holds several entries; their conditions need not be identical. Equal values may be shown once.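 48-hour exposure; five concentrations; linearly interpolated endpoints. GI50 is the concentration that inhibits growth by half. TGI: total growth inhibition.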 Where only a bound is given, the exact number is not on record here.

Among the test systems are SNB-19 CNS; HOP-62 NSCLC; HL-60(TB) leukemia; 786-0 renal; HOP-92 NSCLC; COLO 205 colon; OVCAR-5 ovarian; TK-10 renal; IGROV1 ovarian; SK-OV-3 ovarian.
Holding throughout (assay): NCI anticancer screen, dose series, 48 h

`COc1ccc(N2Cc3cnc(Nc4ccccc4)nc3N([C@@H]3CC[C@@H](O)C3)C2=O)cc1`: the GI50 was 11.9 µM in the experiment with SNB-19 CNS; 8.87 µM in the experiment with HOP-62 NSCLC; 4.45 µM with HL-60(TB) leukemia; 3.08 µM in the experiment with 786-0 renal; 1.16 µM in the experiment on HOP-92 NSCLC; 2.76 µM in the experiment on COLO 205 colon. Moreover, the GI50 with OVCAR-5 ovarian was 5.54 µM; with TK-10 renal it was 1.54 µM; in the experiment on IGROV1 ovarian it was 2.46 µM; in the experiment with SK-OV-3 ovarian, 3.69 µM. Moreover, the TGI with SNB-19 CNS is more than 25 µM; in the experiment with HOP-62 NSCLC, more than 25 µM; in the experiment on HL-60(TB) leukemia, more than 20.7 µM; in the experiment with 786-0 renal, more than 25 µM; in the experiment on HOP-92 NSCLC, 10.7 µM; in the experiment on COLO 205 colon, more than 25 µM. Moreover, the TGI with OVCAR-5 ovarian is more than 25 µM; in the experiment with TK-10 renal it was 12.9 µM; in the experiment with IGROV1 ovarian, more than 18.5 µM; with SK-OV-3 ovarian it was more than 25 µM.
In the case of `Nc1ncnc2c1ncn2C1CCC(COS(N)(=O)=O)C1` (stereo not drawn), the TGI with SNB-19 CNS, in the experiment on HOP-62 NSCLC, with HL-60(TB) leukemia, with 786-0 renal, in the experiment on HOP-92 NSCLC and in the experiment with COLO 205 colon was more than 100 µM each time. In addition, the TGI in the experiment with OVCAR-5 ovarian, in the experiment with TK-10 renal, with IGROV1 ovarian and in the experiment with SK-OV-3 ovarian was more than 100 µM in each case.
Turning to `Oc1ccc(C(c2ccc(O)cc2)c2ccc(Cl)cn2)cc1`, the GI50 in the experiment with SNB-19 CNS is 19.1 µM; in the experiment on HOP-62 NSCLC, 33.7 µM; in the experiment on HL-60(TB) leukemia it was 3.56 µM; in the experiment on 786-0 renal, 36.2 µM; in the experiment with HOP-92 NSCLC, 0.266 µM; in the experiment with COLO 205 colon, 0.0416 µM. Besides, the GI50 with OVCAR-5 ovarian is 17.6 µM; in the experiment with TK-10 renal it was 0.0951 µM; in the experiment with IGROV1 ovarian it was 0.378 µM; in the experiment on SK-OV-3 ovarian it was 18.6 µM. Further, the TGI is more than 100 µM in the experiment on SNB-19 CNS; more than 100 µM in the experiment on HOP-62 NSCLC; 22 µM in the experiment with HL-60(TB) leukemia; more than 100 µM in the experiment with 786-0 renal; 0.947 µM in the experiment with HOP-92 NSCLC; 4.97 µM in the experiment with COLO 205 colon. Further, the TGI is more than 100 µM in the experiment on OVCAR-5 ovarian, 0.525 µM in the experiment with TK-10 renal, 42 µM with IGROV1 ovarian and more than 100 µM in the experiment with SK-OV-3 ovarian.
As for `CCCC(=O)Nc1cc(C(=O)N2C[C@@H]3C[C@]34C2=CC(=O)c2[nH]cc(C)c24)n(COC)c1`, the GI50 is 3.36 µM in the experiment on SNB-19 CNS; 2.5 µM with HOP-62 NSCLC; 1.81 µM with 786-0 renal; 3.22 µM with HOP-92 NSCLC; 1.83 µM in the experiment with COLO 205 colon; 3.86 µM in the experiment on OVCAR-5 ovarian. For the same molecule, the values for the GI50 with TK-10 renal, in the experiment on IGROV1 ovarian and with SK-OV-3 ovarian were 3.3 µM, 1.35 µM and 4.32 µM, respectively. In addition, the TGI with SNB-19 CNS was 50 µM and 14.5 µM; with HOP-62 NSCLC, 50 µM and 8.13 µM; with HL-60(TB) leukemia, 7.8 µM; with 786-0 renal, 15.2 µM and 3.72 µM; in the experiment with HOP-92 NSCLC, 11.2 µM and 7.85 µM; in the experiment on COLO 205 colon, 12.9 µM and 4.26 µM. The TGI in the experiment on OVCAR-5 ovarian was 50 µM and 10.6 µM; in the experiment on TK-10 renal it was 23 µM and 7.37 µM; in the experiment on SK-OV-3 ovarian it was 43.8 µM and 17.9 µM.
On to `CCO/C=C/C(C)C1(C(=O)OCC)CCCCC1=O` (stereo not drawn), for which the TGI in the experiment with SNB-19 CNS, in the experiment with HOP-62 NSCLC, in the experiment on HL-60(TB) leukemia, in the experiment with 786-0 renal, with HOP-92 NSCLC and in the experiment on COLO 205 colon was more than 100 µM in each case. For the same molecule, the TGI with OVCAR-5 ovarian, in the experiment on TK-10 renal, in the experiment with IGROV1 ovarian and in the experiment with SK-OV-3 ovarian was more than 100 µM each time.
With `COc1ccc(-c2nc3sc(-c4ccc(Cl)cc4)cn3n2)cc1`, the GI50 with SNB-19 CNS was 2.47 µM; in the experiment with HOP-62 NSCLC, 2.36 µM; in the experiment on HL-60(TB) leukemia, more than 50 µM; in the experiment on 786-0 renal, 1.06 µM; in the experiment on HOP-92 NSCLC, 0.915 µM; in the experiment on COLO 205 colon, 2.65 µM. Besides, the GI50 with OVCAR-5 ovarian is 2.78 µM; in the experiment on TK-10 renal it was 2.01 µM; with IGROV1 ovarian, 1.15 µM; in the experiment with SK-OV-3 ovarian, 11.7 µM. The TGI in the experiment on SNB-19 CNS was more than 50 µM; in the experiment with HOP-62 NSCLC, more than 50 µM; in the experiment with HL-60(TB) leukemia it was more than 50 µM; in the experiment on 786-0 renal, 2.41 µM; in the experiment with HOP-92 NSCLC, 7.61 µM; with COLO 205 colon, more than 50 µM. Moreover, the TGI in the experiment with OVCAR-5 ovarian was more than 50 µM; with TK-10 renal, 5.62 µM; in the experiment with IGROV1 ovarian, 8.13 µM; in the experiment with SK-OV-3 ovarian, more than 50 µM.
As to `CS(=O)(=O)OCCN1CCN(C(=O)c2cccc3c(Nc4ccc(S(=O)(=O)N=C(N)N)cc4)c4ccccc4nc23)CC1`, the TGI in the experiment on SNB-19 CNS, in the experiment on HOP-62 NSCLC, in the experiment on HL-60(TB) leukemia, in the experiment on 786-0 renal, in the experiment with HOP-92 NSCLC and in the experiment on COLO 205 colon was more than 100 µM throughout. For the same molecule, the TGI in the experiment on OVCAR-5 ovarian, in the experiment on TK-10 renal, in the experiment with IGROV1 ovarian and with SK-OV-3 ovarian was more than 100 µM in each case.
With `COc1ccc(C2SCC(=O)N2NC(=O)C(O)c2ccccc2)cc1OC` (stereo not drawn), the GI50 with SNB-19 CNS, with HOP-62 NSCLC, in the experiment with HL-60(TB) leukemia, with 786-0 renal, in the experiment with HOP-92 NSCLC and in the experiment on COLO 205 colon was more than 100 µM each time. Besides, the GI50 in the experiment on OVCAR-5 ovarian, with TK-10 renal, in the experiment with IGROV1 ovarian and with SK-OV-3 ovarian was more than 100 µM throughout. Further, the TGI in the experiment with SNB-19 CNS, in the experiment with HOP-62 NSCLC, in the experiment with HL-60(TB) leukemia, in the experiment with 786-0 renal, with HOP-92 NSCLC and in the experiment on COLO 205 colon was more than 100 µM throughout. Also, the TGI in the experiment with OVCAR-5 ovarian, in the experiment with TK-10 renal, with IGROV1 ovarian and with SK-OV-3 ovarian was more than 100 µM in each case.
As for `Cc1ccc(S(=O)(=O)NCCNC2=CC(=O)c3nc4ccccc4c4ccnc2c34)cc1`, the GI50 is 13.8 µM with SNB-19 CNS; 20.6 µM with HOP-62 NSCLC; 28.1 µM in the experiment with HL-60(TB) leukemia; 20.6 µM in the experiment on 786-0 renal; 20.3 µM with HOP-92 NSCLC; 14.3 µM with COLO 205 colon. Also, the GI50 was 25 µM in the experiment with OVCAR-5 ovarian, 20.2 µM with TK-10 renal, 19.9 µM in the experiment on IGROV1 ovarian and 33.1 µM in the experiment with SK-OV-3 ovarian. For the same molecule, the TGI in the experiment with SNB-19 CNS was 33.9 µM; with HOP-62 NSCLC, 61.3 µM; in the experiment on HL-60(TB) leukemia, more than 100 µM; with 786-0 renal, 50.2 µM; in the experiment on HOP-92 NSCLC, 55.7 µM; in the experiment on COLO 205 colon, 52.2 µM. The TGI in the experiment with OVCAR-5 ovarian is 65.4 µM; in the experiment with TK-10 renal, 40.1 µM; with IGROV1 ovarian, 51.9 µM; in the experiment with SK-OV-3 ovarian, more than 100 µM.
